Results reported in PubChem BioAssay (NCI).
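Each compound was tested at five concentrations against cells in 96-well plates for 48 hours. TGI: concentration producing complete growth inhibition.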

How the values were obtained:
Test in all cases: NCI-60 cell line screen, 48 h
OVCAR-8 ovarian = system: OVCAR-8 ovarian
SN12C renal = system: SN12C renal
OVCAR-3 ovarian = system: OVCAR-3 ovarian
SF-539 CNS = system: SF-539 CNS
IGROV1 ovarian = system: IGROV1 ovarian
SNB-75 CNS = system: SNB-75 CNS
UACC-257 melanoma = system: UACC-257 melanoma
HCT-15 colon = system: HCT-15 colon
SNB-19 CNS = system: SNB-19 CNS
M14 melanoma = system: M14 melanoma
OVCAR-4 ovarian = system: OVCAR-4 ovarian
K-562 leukemia = system: K-562 leukemia
HT29 colon = system: HT29 colon
SR leukemia = system: SR leukemia
UACC-62 melanoma = system: UACC-62 melanoma
XF 498 CNS = system: XF 498 CNS
MDA-MB-435 = system: MDA-MB-435
MDA-MB-231 breast = system: MDA-MB-231 breast
CAKI-1 renal = system: CAKI-1 renal
T-47D breast = system: T-47D breast

Row | Structure (SMILES) | TGI (OVCAR-8 ovarian) | TGI (SN12C renal) | TGI (OVCAR-3 ovarian) | TGI (SF-539 CNS) | TGI (IGROV1 ovarian) | TGI (SNB-75 CNS) | TGI (UACC-257 melanoma) | TGI (HCT-15 colon) | TGI (SNB-19 CNS) | TGI (M14 melanoma) | TGI (OVCAR-4 ovarian) | TGI (K-562 leukemia) | TGI (HT29 colon) | TGI (SR leukemia) | TGI (UACC-62 melanoma) | TGI (XF 498 CNS) | TGI (MDA-MB-435) | TGI (MDA-MB-231 breast) | TGI (CAKI-1 renal) | TGI (T-47D breast)
1 | CC1CC2OC(=O)C3CC(O)CC(=C23)[C@@]12C[C@@H](c1ccoc1)OC2=O (stereo partly drawn) | > 100 µM | > 100 µM | > 100 µM | > 100 µM | > 100 µM | > 100 µM | > 100 µM | > 100 µM | > 100 µM | > 100 µM | > 100 µM | > 100 µM | > 100 µM | > 100 µM | > 100 µM | > 100 µM | – | – | – | –
2 | CCCCc1ccc(Nc2nc(Cl)c3c(ncn3COCCOC(C)=O)n2)cc1 | 33.6 µM | 34.8 µM | 43.8 µM | 53.4 µM | 40.2 µM | 16.5 µM | 31.4 µM | 30.7 µM | 46.1 µM | 34 µM | 66.6 µM | 51.8 µM | 34.9 µM | 47.3 µM | 31.1 µM | – | 32.9 µM | 33.4 µM | 60.1 µM | 34.6 µM
3 | O=S1(=O)c2cnccc2NC(=NCc2cccc3ccccc23)N1c1ccccc1 | > 100 µM | > 100 µM | > 100 µM | > 100 µM | > 100 µM | > 100 µM | > 100 µM | > 100 µM | > 100 µM | > 100 µM | > 100 µM | > 100 µM | > 100 µM | > 100 µM | > 100 µM | – | > 100 µM | > 100 µM | > 100 µM | > 100 µM
4 | CCOC(=O)CSc1ccnc(=O)[nH]1 | > 100 µM | > 100 µM | > 100 µM | > 100 µM | > 100 µM | > 100 µM | > 100 µM | > 100 µM | > 100 µM | > 100 µM | – | > 100 µM | > 100 µM | – | > 100 µM | > 100 µM | – | – | > 100 µM | –
5 | CCOC(C[C@H](O)[C@H]1COC(=S)S1)OCC | > 100 µM | > 100 µM | > 100 µM | > 100 µM | > 100 µM | – | > 100 µM | > 100 µM | > 100 µM | > 100 µM | – | – | > 100 µM | > 100 µM | > 100 µM | > 100 µM | – | – | – | –
6 | Cc1c2ccncc2cc2c1sc1ccncc12 | 23.7 µM | 16.5 µM | 27.7 µM | 17.6 µM | 39.3 µM | 15.4 µM | 11 µM | 14.4 µM | 30.3 µM | 13.5 µM | 25.2 µM | 21.5 µM | 14.5 µM | 1.67 µM | 8.41 µM | 29.8 µM | – | 21.9 µM | 12.5 µM | 7.44 µM
7 | NC(=S)NNC(=O)/C(=C/c1ccc(/C=C(\NC(=O)c2ccccc2)C(=O)NNC(N)=S)cc1)NC(=O)c1ccccc1 | > 100 µM | > 100 µM | > 100 µM | > 100 µM | > 100 µM | 85 µM | > 100 µM | > 100 µM | > 100 µM | > 100 µM | > 100 µM | > 31.6 µM | > 100 µM | > 63 µM | > 100 µM | > 100 µM | – | – | > 100 µM | –
